Measured values: US5739163A, “Aromatic compounds containing basic and acidic termini useful as fibrinogen receptor antagonists” (The DuPont Merck Pharmaceutical Company, priority 1996, dated 1998)
Counter-ions that a name gives are not always drawn.

Test system: agonist-induced platelet aggregation
Test: Platelet Aggregation Assay
Format: cell-based
Conditions: human platelet-rich plasma
Procedure: Platelet Aggregation Assay: Venous blood was obtained from the arm of a healthy human donor who was drug-free and aspirin-free for at least two weeks prior to blood collection. Blood was collected into 10 mL citrated Vacutainer tubes. The blood was centrifuged for 15 minutes at 150×g at room temperature, and platelet-rich plasma (PRP) was removed. The remaining blood was centrifuged for 15 minutes at 1500×g at room temperature, and platelet-poor plasma (PPP) was removed. […] The results are expressed as % inhibition of agonist-induced platelet aggregation. For the IC50 evaluation, the test compounds were added at various concentrations prior to the activation of the platelets.

[1] = Homo sapiens, Platelet, class symbols
[2] = Homo sapiens, Platelet, numeric bound

| Structure (SMILES) | IC50 [1] [µM] | IC50 [2] [µM] | also measured |
| --- | --- | --- | --- |
| NCCOc1cccc(C(=O)/C=C/c2ccc(OCC(=O)O)c(OCC(=O)O)c2)c1 [Example 29, (E)-4-[3-((3-(2-Aminoethoxy)phenyl))-3-oxo-1-propenyl]benzene-1,2-bis(oxyacetic acid).trifluoroacetate] | 10 to 50 |  |  |
| CCOC(=O)c1cc(/C=C/C(=O)c2cc(OCC)cc(OCCN)c2)ccc1OCC(=O)O [Example 20, (E)-Ethyl 5-[3-((3-(2-aminoethoxy)-5-ethoxyphenyl))-3-oxo-1-propenyl]-2-(carboxymethoxy)benzoate.trifluoroacetate] | 10 to 50 |  |  |
| COc1cc(C(=O)/C=C/c2cccc(OCCN)c2)ccc1OCC(=O)O [Example 211, (E)-4-[3-((3-(2-aminoethoxy)phenyl))-1-oxo-prop-2-enyl]-2-methoxyphenoxyacetic acid.trifluoroacetate] |  | > 100 |  |
| CCCCOC(=O)c1cc(/C=C/C(=O)c2cccc(OCCN)c2)ccc1OCC(=O)O [Example 24, (E)-n-Butyl 5-[3-((3-(2-aminoethoxy)-phenyl))-3-oxo-1-propenyl]-2-(carboxymethoxy)benzoate-trifluoroacetate] | 10 to 50 |  |  |
| CCOC(=O)c1cc(/C=C/C(=O)c2ccccc2OCCCN)ccc1OCC(=O)O [Example 251] |  | > 100 | inhibition at 100 µM: 18% |
| CCOc1cc(OCCN)cc(C(=O)/C=C/c2ccc(OCC(=O)O)cc2)c1 [Example 21, (E)-4-[3-((3-(2-Aminoethoxy)-5-ethoxyphenyl))-3-oxo-1-propenyl]phenoxyacetic acid.trifluoroacetate] | 10 to 50 |  |  |
| NCc1ccc(C(=O)/C=C/c2ccc(CCC(=O)O)cc2)cc1 [Example 245] |  | > 100 | inhibition at 100 µM: 19% |
| NCCOc1cccc(C(=O)/C=C/c2ccc(OCC(=O)O)cc2)c1 [Example 75a] |  |  | IC50 (class symbols): 51 to 100 µM |
| NCCOc1cccc(C(=O)/C=C/c2ccc(OCCC(=O)O)cc2)c1 [Example 242] |  | > 100 |  |
| COc1ccc(/C=C/C(=O)c2cccc(OCCN)c2)cc1CC(=O)O [Example 252] |  | > 100 | inhibition at 100 µM: 38% |
| NCCOc1cccc(C(=O)CCc2ccc(OCC(=O)O)cc2)c1 [Example 126, 4-[3-((3-(2-Aminoethoxy)phenyl))-3-oxo-1-propyl]phenoxyacetic acid.hydrochloride] | 51 to 100 |  |  |
| COC(=O)c1cc(/C=C/C(=O)c2cccc(OCCN)c2)ccc1OCC(=O)O [Example 30] | 10 to 50 |  |  |
| CCOc1cc(/C=C/C(=O)c2cccc(CCN)c2)ccc1OCC(=O)O [Example 91, (E)-4-[3-((3-(2-Aminoethyl)phenyl))-3-oxo-1-propenyl]-2-ethoxyphenoxyaceticacid trifluoroacetate] | 51 to 100 |  |  |
| CCOC(=O)c1cc(/C=C/C(=O)c2cccc(CC(C)N)c2)ccc1OCC(=O)O (stereo not shown) [Example 101, (E)-Ethyl 5-[3-((3-(2-aminopropyl)phenyl))-3-oxo-1-propenyl]-2(carboxymethoxy)benzoate.trifluoroacetate] |  |  | IC50 (class symbols): 10 to 50 µM |
| NCCCCc1ccc(C(=O)/C=C/c2ccc(OCC(=O)O)cc2)cc1 [Example 241] |  | > 100 |  |
| CCOC(=O)COC(=O)c1cc(/C=C/C(=O)c2cccc(OCCN)c2)ccc1OCC(=O)O [Example 27, (E)-(2-Ethoxy-2-oxoethyl) 5-[3-((3-(2-amino-ethoxy)phenyl))-3-oxo-1-propenyl]-2-(carboxymethoxy)-benzoate.trifluoroacetate] | 51 to 100 |  |  |
| NCCOc1cccc(C(=O)/C=C/c2ccc(OCC(=O)O)c(C(=O)OCC(=O)O)c2)c1 [Example 25, (E)-(Carboxymethyl) 5-[3-((3-(2aminoethoxy)-phenyl))-3-oxo-1-propenyl]-2-(carboxymethoxy)benzoate.trifluoroacetate] | < 10 |  |  |
| NCCOc1cccc(C(=O)/C=C/c2ccc(OCC(=O)O)c(-c3ccccc3)c2)c1 [Example 75c] | 51 to 100 |  |  |
| C=CCc1cc(/C=C/C(=O)c2cccc(OCCN)c2)cc(C(=O)OC)c1OCC(=O)O [Example 75b] |  | > 100 |  |
| NCCCCc1ccc(C(=O)/C=C/c2ccc(CCC(=O)O)cc2)cc1 [Example 243] |  | > 100 |  |
| C=CCOc1ccc(OCCN)cc1C(=O)/C=C/c1ccc(OCC(=O)O)c(C(=O)OCC)c1 [Example 3, (E)-Ethyl 5-[3-((2-(1-prop-2-enyloxy)-5-(2aminoethoxy)phenyl))-3-oxo-1-propenyl]-2-(carboxymethoxy)benzoate.trifluoroacetate] | < 10 |  |  |

| Structure (SMILES) | IC50 [1] [µM] | IC50 [2] [µM] | also measured |
| --- | --- | --- | --- |
| NCCc1cccc(C(=O)/C=C/c2ccc([N+](=O)[O-])c(OCC(=O)O)c2)c1 [Example 240] |  | > 100 |  |
| CCOC(=O)c1cc(/C=C/C(=O)c2cccc(C#CCN)c2)ccc1OCC(=O)O [Example 247] |  | > 100 |  |
| CCOC(=O)c1cc(/C=C/C(=O)c2cccc(OCCN)c2)ccc1OCC(=O)O [Example 2, (E)-Ethyl 5-[3-((3-(2-aminoethoxy)phenyl))-3-oxo-1-propenyl]-2-(carboxymethoxy)benzoate.trifluoroacetate] | 10 to 50 |  |  |
| COc1cc(/C=C/C(=O)c2cccc(OCCN)c2)ccc1OCC(=O)O [Example 23] | < 10 |  |  |
| CNCCOc1cccc(C(=O)/C=C/c2ccc(OCC(=O)O)c(OC)c2)c1 [Example 121, (E)-4-[[3-[3-((2-(methylamino)ethoxy))-phenyl]-3-oxo-1-propenyl]]-2-methoxyphenoxyacetic acid.trifluoroacetate] | 10 to 50 |  |  |
| NCc1ccc(C(=O)/C=C/c2ccc(OCC(=O)O)c([N+](=O)[O-])c2)cc1 [Example 250] |  | > 100 |  |
| NCCc1cccc(C(=O)/C=C/c2ccc(OCC(=O)O)c([N+](=O)[O-])c2)c1 [Example 93] |  | > 100 | inhibition at 100 µM: 21% |
| NCCOc1cccc(C(=O)/C=C/c2ccc(OCC(=O)O)c(C(=O)OCc3ccccc3)c2)c1 [Example 28, (E)-Benzyl 5-[3-((3-(2-aminoethoxy)phenyl))-3-oxo-1-propenyl]-2-(carboxymethoxy)benzoate.trifluoroacetate] | 51 to 100 |  |  |
| CN(C)CCOc1cccc(C(=O)/C=C/c2cccc(C(=O)O)c2)c1 [Example 248] |  | > 100 | inhibition at 100 µM: 13% |
| C=CCOc1ccc(OCCN)cc1C(=O)/C=C/c1ccc(OCC(=O)O)c(C(=O)OCC(=O)O)c1 [Example 44, (E)-(Carboxymethyl) 5-((3-((2-(1-prop-2-enyloxy)-5-(2-aminoethoxy)phenyl))-3-oxo-1-propenyl))-2-(carboxymethoxy)benzoate.trifluoroacetate] | < 10 |  |  |
| NCCOc1cccc(C(=O)/C=C/c2ccc(OCC(=O)O)c([N+](=O)[O-])c2)c1 [Example 26, (E)-4-[3-((3-(2-Aminoethoxy)phenyl))-3-oxo-1-propenyl]-2-nitrophenoxyacetic acid.trifluoroacetate] | < 10 |  |  |
| NCCOc1ccc(OCc2ccccc2)c(C(=O)/C=C/c2ccc(OCC(=O)O)c(C(=O)OCC(=O)O)c2)c1 [Example 43] | < 10 |  |  |
| NCc1cccc(C(=O)/C=C/c2ccc(OCC(=O)O)cc2)c1 [Example 125a] |  | > 100 |  |
| NCc1cccc(C(=O)/C=C/c2cccc(OCC(=O)O)c2)c1 [Example 244] |  | > 100 |  |
| COc1cc(OCC(=O)O)ccc1/C=C/C(=O)c1cccc(OCCN)c1 [Example 65, (E)-4-[3-((3-(2-Aminoethoxy)phenyl))-3-oxo-1-propenyl]-3-methoxyphenoxyacetic acid.hydrochloride] | 10 to 50 |  |  |
| COc1cc(/C=C/C(=O)c2cccc(N3CCNCC3)c2)ccc1OCC(=O)O [Example 120] | < 10 |  |  |
| NCCOc1cccc(C(=O)/C=C/c2ccc(OCC(=O)O)cc2)c1 [Example 1, (E)-4-[3-((3-(2-Aminoethoxy)phenyl))-3-oxo-1-propenyl]phenoxyacetic acid.hydrochloride] |  |  | IC50 (class symbols): 10 to 50 µM |
| NCc1cccc(C(=O)/C=C/c2ccc(OCC(=O)O)c(OCC(=O)O)c2)c1 [Example 76] | 51 to 100 |  |  |
| CCOc1cc(/C=C/C(=O)c2cccc(OCCN)c2)ccc1OCC(=O)O [Example 22, (E)-4-[3-((3-(2-Aminoethoxy)phenyl))-3-oxo-1-propenyl]-2-ethoxyphenoxyacetic acid.trifluoroacetate] | < 10 |  |  |
| COc1cc(/C=C/C(=O)c2cccc(CNC(=N)N)c2)ccc1OCC(=O)O [Example 112, (E)-4-[3-((3-(guanidinylmethyl)phenyl))-3-oxo-1-propenyl]-2-methoxyphenoxyacetic acid.trifluoroacetate] | 10 to 50 |  |  |
